# Where two headings read alike, the source gives them in different places.
# Biological target: h-cGAS (Homo sapiens (Human), UniProt Q8N884)
# Assay: hcGAS Kinase-Glo assay
# Type: biochemical
# [1] = Table C, raw data in parentheses, read-out: hcGAS IC50
# [2] = Table C, IC50 range designation, read-out: hcGAS IC50
# h-cGAS, sequence (Q8N884 whole entry): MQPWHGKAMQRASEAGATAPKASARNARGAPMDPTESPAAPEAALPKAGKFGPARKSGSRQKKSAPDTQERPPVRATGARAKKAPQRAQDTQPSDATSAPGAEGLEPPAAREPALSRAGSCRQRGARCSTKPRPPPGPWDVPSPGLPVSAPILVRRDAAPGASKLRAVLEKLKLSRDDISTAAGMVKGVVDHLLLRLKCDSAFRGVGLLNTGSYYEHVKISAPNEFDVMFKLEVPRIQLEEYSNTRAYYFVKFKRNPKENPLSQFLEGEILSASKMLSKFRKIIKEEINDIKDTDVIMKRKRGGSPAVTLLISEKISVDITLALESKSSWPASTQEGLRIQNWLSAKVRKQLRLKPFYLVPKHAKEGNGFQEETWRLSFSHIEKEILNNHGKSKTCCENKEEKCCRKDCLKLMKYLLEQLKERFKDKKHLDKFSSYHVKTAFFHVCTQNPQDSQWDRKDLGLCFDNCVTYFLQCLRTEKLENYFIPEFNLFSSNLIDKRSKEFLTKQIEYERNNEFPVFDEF
Compound,IC50 [1],IC50 [2],IC50 (read-out: hcGAS activity)
"C[C@@H]1c2c([nH]c3c(Cl)c(Cl)ccc23)CCN1C(=O)CN (single isomer, unassigned) [51A*]",> 10 µM,> 5 µM,
"C[C@H]1c2c([nH]c3c(Cl)c(Cl)ccc23)CCN1C(=O)CN (single isomer, unassigned) [51B*]",0.0178 µM,< 0.1 µM,
"COc1cnc(C(=O)N2CCn3nc4c(Cl)c(Cl)ccc4c3[C@H]2C)nc1 (single isomer, unassigned) [52A*]",> 10 µM,> 5 µM,
"COc1cnc(C(=O)N2CCn3nc4c(Cl)c(Cl)ccc4c3[C@@H]2C)nc1 (single isomer, unassigned) [52B*]",0.0715 µM,< 0.1 µM,
"C[C@@H]1c2c3c(-c4ccn(C)n4)cc(Cl)c(Cl)c3nn2CCN1C(=O)CO (single isomer, unassigned) [61A*]",> 10 µM,> 5 µM,
"C[C@H]1c2c3c(-c4ccn(C)n4)cc(Cl)c(Cl)c3nn2CCN1C(=O)CO (single isomer, unassigned) [61B*]",0.0599 µM,< 0.1 µM,
"C[C@H]1c2c([nH]c3c(Cl)c(Cl)ccc23)CCN1C(=O)c1ncc(C#N)[nH]1 (single isomer, unassigned) [95B*]",0.587 µM,,
"O=C(c1ncc[nH]1)N1CCc2[nH]c3c(Cl)c(Cl)ccc3c2C1 [Compound 5, (6,7-dichloro-1,3,4,5-tetrahydro-2H-pyrido[4,3-b]indol-2-yl)(1H-imidazol-2-yl)methanone]",0.878 µM,0.5 to 1 µM,0.5 to 1 µM
"O=C(c1nnn[nH]1)N1CCc2[nH]c3c(Cl)c(Cl)ccc3c2C1 [Compound 7, (6,7-dichloro-1,3,4,5-tetrahydro-2H-pyrido[4,3-b]indol-2-yl)(1H-tetrazol-5-yl)methanone]",3.3 µM,1 to 5 µM,1 to 5 µM
"Cn1cnc(C(=O)N2CCc3[nH]c4c(Cl)c(Cl)ccc4c3C2)n1 [Compound 9, (6,7-dichloro-1,3,4,5-tetrahydro-2H-pyrido[4,3-b]indol-2-yl)(1-methyl-1H-1,2,4-triazol-3-yl)methanone]",1.07 µM,1 to 5 µM,1 to 5 µM
"Cc1cnc(C(=O)N2CCc3[nH]c4c(Cl)c(Cl)ccc4c3C2)[nH]1 [Compound 10, (6,7-dichloro-1,3,4,5-tetrahydro-2H-pyrido[4,3-b]indol-2-yl)(5-methyl-1H-imidazol-2-yl)methanone]",3.22 µM,1 to 5 µM,1 to 5 µM

# The next lines start with the values.
IC50 [1],IC50 [2],IC50 (read-out: hcGAS activity),Compound
1.32 µM,,,"CONC(=O)N1CCc2[nH]c3c(Cl)c(Cl)ccc3c2C1C (racemic) [Rac-98, 6,7-dichloro-N-methoxy-1-methyl-1,3,4,5-tetrahydro-2H-pyrido[4,3-b]indole-2-carboxamide]"
0.409 µM,,,"COc1cnc(C(=O)N2CCc3[nH]c4c(Cl)c(Cl)cc(SC)c4c3C2C)nc1 (racemic) [Rac-101, (6,7-dichloro-1-methyl-9-(methylthio)-1,3,4,5-tetrahydro-2H-pyrido[4,3-b]indol-2-yl)(5-methoxypyrimidin-2-yl)methanone]"
0.115 µM,,,"COc1cnc(C(=O)N2CCc3[nH]c4c(Cl)c(Cl)cc(C)c4c3C2C)nc1 (racemic) [Rac-103, (6,7-dichloro-1,9-dimethyl-1,3,4,5-tetrahydro-2H-pyrido[4,3-b]indol-2-yl)(5-methoxypyrimidin-2-yl)methanone]"
0.0455 µM,,,"COc1cnc(C(=O)N2CCc3[nH]c4c(Cl)c(Cl)cc(OC)c4c3C2C)nc1 (racemic) [Rac-132, (6,7-dichloro-9-methoxy-1-methyl-1,3,4,5-tetrahydro-2H-pyrido[4,3-b]indol-2-yl)(5-methoxypyrimidin-2-yl)methanone]"
1.52 µM,1 to 5 µM,1 to 5 µM,"Nc1ccnc(C(=O)N2CCc3[nH]c4c(Cl)c(Cl)ccc4c3C2)n1 [Compound 14, (4-aminopyrimidin-2-yl)(6,7-dichloro-1,3,4,5-tetrahydro-2H-pyrido[4,3-b]indol-2-yl)methanone]"

# — US20250179079A1, “HEXAHYDROPYRIDO[4,3-B]INDOLYL KETONE DERIVATIVES USEFUL AS CGAS MODULATORS” (Ventus Therapeutics U.S., Inc., priority 2022, published 2025)
